# What was measured:
# [1] = tested on: IL-12p70 (the complex of IL-12p35 and p40); assay: IL-12p70 production inhibition in macrophages derived from mouse abdomen (IFN-γ/SAC stimulation, ELISA); format: cell-based; settings: Macrophage; mouse (Balb/c) abdominal macrophages, 100 ng/mL mouse IFN-γ + 0.05% SAC, overnight; TFA salts tested where prepared as such; read-out: IL-12p70-Inhibitory Activity IC50
# Method in brief: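 Thioglycolate-elicited adherent peritoneal macrophages from female Balb/c mice were collected 5–6 days after dosing. Cells were stimulated overnight with 100 ng/mL mouse IFN-γ plus 0.05% (v/v) killed S. aureus Cowan I, with compound present. IL-12p70, IL-12p40 and TNF-α in supernatants were measured by ELISA and IC50s derived, with cell survival also checked.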
# [2] = tested on: TNF-α; assay: TNF-α production inhibition in macrophages derived from mouse abdomen (IFN-γ/SAC stimulation, ELISA); format: cell-based; settings: Macrophage; mouse (Balb/c) abdominal macrophages, 100 ng/mL mouse IFN-γ + 0.05% SAC, overnight; TFA salts tested where prepared as such; read-out: TNF-α-Inhibitory Activity IC50
# Method: (§1) One milliliter each of a 3% (w/v) thioglycolate solution was intraperitoneally administered to mice (female Balb/c mice), the abdominal cells of each mouse were recovered after 5 or 6 days from the administration of the thioglycolate solution and the adhesive cells were collected and used in the exaluation procedures. To a culture medium containing such adhesive cells, there were added 100 ng/mL of mouse interferon-γ and a 0.05% (v/v) liquid containing killed cells derived from Staphylococcus aureus Cowan I strain (SAC) and a candidate compound and then the mixture was cultivated overnight. After the completion of the cultivation, the survival ratios were determined, there were quantitatively determined the quantities of IL-12p70 (the complex of IL-12p35 and p40) and IL-12p40 or TNF-α according to the ELISA assays while making use of the recovered supernatant of the culture medium and the 50% production-inhibitory concentration (IC50) was calculated for each case (see Table 1 and Tables 1-9 for IL-12p70 and TNF-α and Tables 1 to 10 for IL-12p40).
# [3] = tested on: IL-12p70 (the complex of IL-12p35 and p40); assay: IL-12p70 production inhibition in whole blood of mouse (IFN-γ/SAC stimulation, ELISA); format: cell-based; settings: mouse (Balb/c) whole blood, EDTA, 100 ng/mL mouse IFN-γ + 1.25% SAC, overnight; TFA salts tested where prepared as such
# Method: The blood was recovered from the mice (female Balb/c mice) (containing added EDTA) and it was used for the evaluation. To a cell culture medium, there were added 100 ng/mL of mouse interferon-γ, 1.25% (v/v) of a liquid containing killed cells derived from Staphylococcus aureus Cowan I strain (SAC) and a candidate compound, the resulting mixture was diluted to a volume equivalent to the blood and then the diluted medium was cultivated overnight. After the completion of the cultivation, the amount of IL-12p70 (the complex of IL-12p35 and p40) was quantitatively determined according to the ELISA assays while making use of the recovered supernatant of the culture medium and the 50% production-inhibitory concentrations (IC50) were calculated for Compounds 38, 80, 82, 83, 84, 85, 87, 90 and 91. (see Table 3).
# [4] = tested on: IL-12p40; assay: IL-12p40 production inhibition in macrophages derived from mouse abdomen (IFN-γ/SAC stimulation, ELISA); format: cell-based; settings: Macrophage; mouse (Balb/c) abdominal macrophages, 100 ng/mL mouse IFN-γ + 0.05% SAC, overnight
# Method: as §1
# [5] = tested on: mouse enteritis model; assay: Inflammation-inhibitory action in mouse enteritis model (immigration of IL-10-/- cells), weight of large intestine; format: in vivo
# Text: The method for establishing the mouse enteritis model by the immigration of IL-10−/−cells is, for instance, disclosed in Gastroenterology. 2009 February; 136(2): 564-74.e2. Epub 2008 Oct. 7.
# The following method was used for the determination of the weight of intestinal tract as an indication of the drug efficacy: On the final day of the autopsy, the large intestine extending from the anus to immediately before the blind gut was surgically excised, the contents of the intestinal tract were washed away with physiological saline, the moisture adhered thereto was roughly removed and then the weight thereof was determined.
# The inflammation-inhibitory effect of Compound 1 on the mouse enteritis model was evaluated using this evaluation system and the results obtained were plotted on FIG. 1.
IC50 [1],IC50 [2],IC50 [3],IC50 [4],SMILES,"control effect on weight of the large intestine ([5]; mouse enteritis model, 30 mg/kg once a day)","weight of the large intestine increased due to the immigration of IL-10-/- cells ([5]; mouse enteritis model, 3, 10, 30 mg/kg, FIG. 1)"
0.056 µM,–,0.28 µM,0.0978 µM,"C(=N\Nc1cc(N2CCOCC2)n2nc(-c3ccncc3)cc2n1)/c1ccc2cc[nH]c2c1 [Compound 117, N-(1H-indol-6-yl-methylidene)-N′-(7-morpholin-4-yl-2-pyridin-4-yl-pyrazolo[1,5-a]pyrimidin-5-yl)-hydrazine]",–,–
0.079 µM,–,0.84 µM,0.15 µM,"Cc1cccc(/C=N/Nc2cc(N3CC4C[C@H]3CO4)n3nc(-c4ccncc4)cc3n2)c1 [Compound 121, N-(3-methyl-benzylidene)-N′-[7-(2-oxo-5-azabicyclo-[2.2.1]hept-5-yl)-2-pyridin-4-yl-pyrazolo[1,5-a]pyrimidin-5-yl]-hydrazine]",–,–
0.018 µM,–,1 µM,–,"Cc1cccc(/C=N/Nc2cc(N3CCOCC3)n3nc(-c4ccnnc4)cc3n2)c1 [Compound 94, N-(3-methyl-benzylidene)-N-(7-morpholin-4-yl-2-pyridazin-4-yl-pyrazolo[1,5-a]pyrimidin-5-yl)-hydrazine]",–,–
0.11 µM,–,3.7 µM,–,"C(=N\Nc1cc(N2CCOCC2)n2nc(-c3ccncc3)cc2n1)/c1cc2ccccc2s1 [Compound 108, N-benzo[b]thiophen-2-yl-methylidene-N′-(7-morpholin-4-yl-2-pyridin-4-yl-pyrazolo[1,5-a]pyrimidin-5-yl)-hydrazine]",–,–
0.047 µM,–,1 µM,0.07 µM,"Cc1cccc(/C=N/Nc2cc(N3CCOCC3)n3nc(-c4ccncn4)cc3n2)c1 [Compound 119, N-(3-methyl-benzylidene)-N-(7-morpholin-4-yl-2-pyrimidin-4-yl-pyrazolo[1,5-a]pyrimidin-5-yl)-hydrazine]",–,–
0.049 µM,–,3.8 µM,–,"CCc1cccc(/C=N/Nc2cc(N3CCOCC3)n3nc(-c4cnccn4)cc3n2)c1 [Compound 116, N-(3-ethyl-benzylidene)-N-(7-morpholin-4-yl-2-pyrazin-2-yl-pyrazolo[1,5-a]pyrimidin-5-yl)-hydrazine]",–,–
0.11 µM,–,0.76 µM,–,"C(=N\Nc1cc(N2CCOCC2)n2nc(-c3ccncc3)cc2n1)/c1c[nH]c2ncccc12 [Compound 126, N-(7-morpholin-4-yl-2-pyridin-4-yl-pyrazolo[1,5-a]-pyrimidin-5-yl)-N′-(1H-pyrrolo[2,3-b]pyridin-3-yl-methylidene)-hydrazine]",–,–

# Further lines, the molecule ahead of its results:
SMILES,IC50 [1],IC50 [2],IC50 [3],IC50 [4],"control effect on weight of the large intestine ([5]; mouse enteritis model, 30 mg/kg once a day)","weight of the large intestine increased due to the immigration of IL-10-/- cells ([5]; mouse enteritis model, 3, 10, 30 mg/kg, FIG. 1)"
"Cc1cccc(/C=N/Nc2cc(N3CCOCC3)n3nc(-c4ccc(N5CCOCC5)nc4)cc3n2)c1 [Compound 85, N-(3-methyl-benzylidene)-N′-[7-morpholin-4-yl-2-(6-morpholin-4-yl-pyridin-3-yl)-pyrazolo[1,5-a]pyrimidin-5-yl]-hydrazine]",0.0032 µM,> 10 µM,4.2 µM,–,–,–
"C(=N\Nc1cc(N2CCOCC2)n2nc(-c3cccnc3)cc2n1)/c1c[nH]c2ccccc12 [Compound 82, N-(1H-indol-3-yl-methylidene)-N′-(7-morpholin-4-yl-2-pyridin-3-yl-pyrazolo[1,5-a]pyrimidin-5-yl)-hydrazine]",0.0041 µM,> 10 µM,3.2 µM,–,–,–
"Cc1cc2nc(N/N=C/c3c[nH]c4ccccc34)cc(N3CCOCC3)n2n1 [Compound 80, N-(1H-indol-3-yl-methylidene)-N′-(2-methyl-7-morpholin-4-yl-pyrazolo[1,5-a]pyrimidin-5-yl)-hydrazine]",0.16 µM,> 10 µM,4.9 µM,–,–,–
"Cc1cccc(/C=N/Nc2cc(N3CCOCC3)n3nc(-c4ccncc4)cc3n2)c1 [Compound 83, N-(3-methyl-benzylidene)-N′-(7-morpholin-4-yl-2-pyridin-4-yl-pyrazolo[1,5-a]pyrimidin-5-yl)-hydrazine]",0.0084 µM,> 10 µM,0.88 µM,0.0113 µM,significant control effect,controlled in a dose of Compound 83-dependent manner
"Cc1cccc(/C=N/Nc2cc(N3CCOCC3)n3nc(-c4cccnc4)cc3n2)c1 [Compound 38, N-(3-methyl-benzylidene)-N′-(7-morpholin-4-yl-2-pyridin-3-yl-pyrazolo[1,5-a]pyrimidin-5-yl)-hydrazine]",0.011 µM,> 10 µM,2.7 µM,–,–,–
"C(=N\Nc1cc(N2CCOCC2)n2nc(-c3ccncc3)cc2n1)/c1c[nH]c2ccccc12 [Compound 84, N-(1H-indol-3-yl-methylidene)-N′-(7-morpholin-4-yl-2-pyridin-4-yl-pyrazolo[1,5-a]pyrimidin-5-yl)-hydrazine]",0.0032 µM,> 10 µM,2.3 µM,–,–,–
"Cc1cccc(/C=N/Nc2cc(N3CCOCC3)n3nccc3n2)c1 [Compound 9, N-(3-methyl-benzylidene)-N′-(7-morpholin-4-yl-pyrazolo-[1,5-a]pyrimidin-5-yl)-hydrazine]",0.141 µM,> 10 µM,–,0.137 µM,–,–
"C(=N\Nc1cc(N2CCOCC2)n2nc(-c3ccncc3)cc2n1)/c1ccsc1 [Compound 91, N-(7-morpholin-4-yl-2-pyridin-4-yl-pyrazolo[1,5-a]-pyrimidin-5-yl)-N′-thiophen-3-yl-methylidene-hydrazine]",0.048 µM,–,4.6 µM,–,–,–

# Source: patent US8314098B2, “Pyrazolo-pyrimidine compounds” (Ajinomoto Co., Inc., priority 2008, dated 2012)
